Assay [1] deals with CRFR1. Set-up: method as in 5 sources, ref 26 = [26]; PMID 9918582; 26 Perrin MH Sutton SW Cervini LA Rivier JE Vale WW 1999 Comparison of an agonist, urocortin, and an antagonist, astressin, as radioligands for characterization of corticotropin-releasing factor recep ||| ref [73] (a number printed in a supplementary file, which may have a reference list of its own: not looked up in the article's list) ||| ref [74] (a number printed in a supplementary file, which may have a reference list of its own: not looked up in the article's list) ||| ref [75] (a number printed in a supplementary file, which may have a reference list of its own: not looked up in the article's list) ||| ref [76] (a number printed in a supplementary file, which may have a reference list of its own: not looked up in the article's list). The conditions noted are these: cited from earlier work.

In assay [2] the target is CRFR2. Particulars: cited from earlier work. From the text:
(§1) Supplement pone.0018114.s002.xlsx, sheet "Sheet1" | column: Target (notes)

For assay [3], the system named is CRF-induced CREB phosphorylation in striatal neurons. Nature of the assay: Block of CRF-induced CREB phosphorylation. Format: cell-based, rat.
Assay [4] relates to STR-induced CREB phosphorylation. Nature of the assay: Block of stressin-1-induced CREB phosphorylation. The class given is cell-based, rat. The conditions noted are these: CP154526 100 nM; stressin-1 70 nM, 15 min.
The test system of assay [5] is depolarization-induced CREB phosphorylation. Set-up: method as in 3 sources, ref 36 = [36]; PMID 11226322; doi:10.1073/pnas.051634198; 36 Wu GY Deisseroth K Tsien RW 2001 Activity-dependent CREB phosphorylation: convergence of a fast, sensitive calmodulin kinase pathway and a slow, less sensitive mitogen-activated protein kinase path ||| ref [36] (a number printed in a supplementary file, which may have a reference list of its own: not looked up in the article's list) ||| ref [71] (a number printed in a supplementary file, which may have a reference list of its own: not looked up in the article's list). Particulars: 2 µM; cited from earlier work.

Assay [6] concerns ISO-induced cAMP accumulation. Nature of the assay: Block of ISO-induced cAMP accumulation. Format: cell-based, rat. The conditions noted are these: SQ22536 90 µM; ISO 10 µM; IBMX 75 µM. A general note: Cyclic AMP is a second messenger, typically raised through Gs and lowered through Gi signalling.
The subject of assay [7] is PKA. The conditions noted are these: cited from earlier work.
Text: as §1

Assay [8] deals with CREB phosphorylation in cultured striatal neurons. Format: cell-based, rat.
The test system is the same in assay [9]. The conditions noted are these: ISO via a Gαs pathway in striatal neurons; cited from earlier work. The method, then: To test for a Gβγ-dependent mechanism in CRF-induced CREB phosphorylation, we utilized the Gβγ-specific inhibitor gallein (75 µM). […] To ensure that the effect of gallein was specific to CRF and not dampening all G-protein signaling, we stimulated our neurons with ISO (10 µM) in the presence of gallein. […] Indeed, this was in fact the ...

In assay [10] the test system is cAMP in cultured striatal neurons. Nature of the assay: cAMP assay (Parameter cAMP kit) in cultured striatal neurons. Particulars: IBMX 75 µM. The class given is cell-based, rat.
The subject of assay [11] is PI3K. Particulars: 100 nM; cited from earlier work.
Text: as §1

Assay [12] has as its target CRF receptor 1 (UniProt P34998). Particulars: cited from earlier work.
Assay [13] concerns depolarization-induced CREB phosphorylation. The class given is cell-based.
In assay [14] the test system is total CREB in cultured striatal neurons. Nature of the assay: Immunocytochemistry of total CREB. The class given is cell-based, rat. Particulars: CRF 40 nM, 15 min, vs vehicle; P = 0.67, Student's two-tailed T-test.
Assay [15] concerns rewarding effects of drugs of abuse / sucrose reward. Particulars: cited from earlier work. From the text: Human individuals with a history of chronic stress are more likely to become addicts, and previously abstinent addicts are more likely to relapse following exposure to an acute stressor [1]–[3]. […] And while research thus far has focused on the NAc, CRF neurotransmission is also an essential component to connectivity in the dorsal striatum [19]–[22].

The subject of assay [16] is CREB in cerebellar and hippocampal neurons. Particulars: cited from earlier work. From the text:
Separate from CREB/MAPK signaling, CRF also affects the activity of various other kinases, second messengers, ion channels and neurotransmitter receptors [45]–[51]. This diversity in cellular effects is not surprising when one considers the ability of CRF ...

Setting [17] is: inhibitor 100 nM, 30 min prior and concurrently, CRF 15 min.
Where [18] appears, read: inhibitor 500 nM, 30 min prior and concurrently, CRF 15 min, data not shown.
The mark [19] stands for this setting: inhibitor 1 µM, 30 min prior and concurrently, CRF 15 min, data not shown.
Setting [20] is: inhibitor 10 µM, 30 min prior and concurrently, CRF 15 min.

“Also recorded” adds a separate entry of the source. Where two headings read alike, the source gives them in different places. No end group written: not given here.

Sequence of CRF receptor 1 (P34998 24-415): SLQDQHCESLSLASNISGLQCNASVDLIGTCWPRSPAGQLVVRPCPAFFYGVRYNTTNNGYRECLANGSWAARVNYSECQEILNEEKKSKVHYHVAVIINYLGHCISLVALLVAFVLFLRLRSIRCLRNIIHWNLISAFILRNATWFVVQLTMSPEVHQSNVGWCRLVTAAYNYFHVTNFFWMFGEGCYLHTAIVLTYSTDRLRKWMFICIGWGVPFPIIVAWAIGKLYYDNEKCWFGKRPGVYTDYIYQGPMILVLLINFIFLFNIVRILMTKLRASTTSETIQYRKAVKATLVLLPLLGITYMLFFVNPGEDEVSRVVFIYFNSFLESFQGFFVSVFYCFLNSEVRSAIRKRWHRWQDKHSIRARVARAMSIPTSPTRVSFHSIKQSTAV

For `CCCCN(CC)c1nc(C)nc2c1c(C)cn2-c1c(C)cc(C)cc1C` [CP154526], the Ki in [1] was 2.7 nM; in [2] it was > 10000 nM. For the same compound, the “effect on CRF-induced CREB phosphorylation” value in assay [3] (setting [17]) is reported as “eliminated CRF-induced CREB phosphorylation; also recorded: blocked”. Moreover, the “effect on STR-induced CREB phosphorylation” value in assay [4] is “blocked”.
As to `Cc1cncc2cccc(S(=O)(=O)N3CCCNC[C@@H]3C)c12` [H-1152], the “effect on CRF-induced CREB phosphorylation” value in assay [3] (setting [18]) was “failed to affect CRF-induced CREB phosphorylation”.
As to `COc1ccc(S(=O)(=O)N(CCO)c2ccccc2CN(C)C/C=C/c2ccc(Cl)cc2)cc1` [KN-93], the “effect on depolarization-induced CREB phosphorylation” value in [5] was “blocks depolarization-induced CREB phosphorylation”. In addition, the “effect on CRF-induced CREB phosphorylation” value in [3] (inhibitor 2 µM, 30 min prior and concurrently, CRF 15 min) is on record as “had no effect on CRF-induced CREB phosphorylation; also recorded: did not affect CRF-induced CREB phosphorylation”.
For the compound `CCCCCCOC(=O)[C@]1(O)C[C@@H]2O[C@@]1(C)n1c3ccccc3c3c4c(c5c6ccccc6n2c5c31)C(=O)NC4` [KT5720], the “effect on CRF-induced CREB phosphorylation” value in assay [3] (setting [19]) is “failed to eliminate CRF-induced CREB phosphorylation”.
Take `COc1cccc(-c2cc(=O)c3ccccc3o2)c1N` [PD98059]: in [3] (inhibitor 25 µM, 30 min prior and concurrently, CRF 15 min, data not shown), the “effect on CRF-induced CREB phosphorylation” value is “yielded a similar result”.
Consider `Nc1ncnc2c1ncn2C1CCCO1` (stereo not drawn) [SQ22536], for which the “effect on ISO-induced cAMP formation” value in [6] is given as “completely blocked ISO-induced cAMP accumulation; also recorded: completely blocked ISO-induced cAMP formation”. The “effect on CRF-induced CREB phosphorylation” value in assay [3] (inhibitor 90 µM, 30 min prior and concurrently, CRF 15 min) is “had no effect on CRF-induced CREB phosphorylation; also recorded: failed to affect CRF-induced CREB phosphorylation”.
As for `N#CC(=C(/N)Sc1ccccc1N)/C(C#N)=C(/N)Sc1ccccc1N` [U0126], the “effect on CRF-induced CREB phosphorylation” value in [3] (setting [20]) is reported as “blocked CRF-induced CREB phosphorylation”.
For the compound `CCN(CC)CC.Nc1ncnc2c1ncn2[C@@H]1O[C@@H]2COP(O)(=S)O[C@H]2[C@H]1O` (stereo partly drawn) [cAMPS-Rp, triethylammonium salt], the EC50 in assay [7] is 11 to 16 µM. The “effect on CRF-induced CREB phosphorylation” value in assay [3] (setting [20]) was “failed to eliminate CRF-induced CREB phosphorylation”.
Consider `C=C[C@@]1(C)CC(=O)[C@]2(O)[C@@]3(C)[C@@H](O)CCC(C)(C)[C@@H]3[C@H](O)[C@H](OC(C)=O)[C@@]2(C)O1` [forskolin], for which the CREB phosphorylation entry in [8] (AC agonist, 25 µM) was “CREB phosphorylation stimulated”.
As to `CC(C)NCC(O)c1ccc(O)c(O)c1` (stereo not drawn) [isoproterenol], in [9], the CREB phosphorylation result is “leads to CREB phosphorylation”. Also, the cAMP concentration result in [10] (ISO 10 µM, 15 min, positive control) is listed as “significant increase in cAMP”.
On to `COC(=O)C1=C(C)NC(C)=C(C(=O)OC)C1c1ccccc1[N+](=O)[O-]` [nifedipine], for which the “effect on CRF-induced CREB phosphorylation” value in assay [3] (inhibitor 5 µM, 30 min prior and concurrently, CRF 15 min) was “had no effect on CRF-induced CREB phosphorylation; also recorded: not affected”.
On to `COC[C@H]1OC(=O)c2coc3c2[C@@]1(C)C1=C(C3=O)[C@@H]2CCC(=O)[C@@]2(C)C[C@H]1OC(C)=O` [wortmannin], for which the PI3K inhibition result in assay [11] is “PI3K (100 nM inhibits PI3K)”. The “effect on CRF-induced CREB phosphorylation” value in assay [3] (setting [18]) is “failed to affect CRF-induced CREB phosphorylation”.
For the compound “Corticotropin releasing factor (from UniProt P06850)”, the Kd in [12] is 7.5 nM.
As for “PKI, 14–22 amide: cell permeable peptide PKA inhibitor (SGRTGRRNA-NH2; not fully specified (N-terminus); also: myristoylated, site not given here; UniProt P61925 14-22, looked up, fragment)”, the Ki in assay [7] is 36 nM. In [3] (setting [19]), the “effect on CRF-induced CREB phosphorylation” value is listed as “failed to eliminate CRF-induced CREB phosphorylation”.
Turning to antisauvagine-30, the results for the Kd in [1] and in assay [2] were 154 nM and 1.4 nM, respectively. For the same compound, the “effect on CRF-induced CREB phosphorylation” value in assay [3] (setting [17]) is “failed to block CRF-induced CREB phosphorylation; also recorded: had no effect on CRF-induced CREB phosphorylation”.
With astressin, the Ki in assay [1] is 1.6 to 2 nM; in assay [2] it was 1.5 to 2.8 nM. For the same compound, the “effect on CRF-induced CREB phosphorylation” value in assay [3] (inhibitor 50 nM, 30 min prior and concurrently, CRF 15 min) is reported as “completely abolished CRF-induced CREB phosphorylation; also recorded: blocked”.
As for cholera toxin [CTX], in assay [13], the “effect on 60 mM K+ depolarization-induced (MAPK-dependent) CREB phosphorylation” value is recorded as “had no effect on MAPK-dependent CREB phosphorylation; also recorded: unaffected”. In assay [3], the “effect on CRF-induced CREB phosphorylation” value is on record as “blocked CRF-induced CREB phosphorylation; also recorded: complete block of CRF-induced CREB phosphorylation”. Besides, in [8], the “pCREB after toxin alone” value is listed as “transient increase in pCREB on its own” and the “pCREB signal after toxin alone” value was 2809.7±104.5.
corticotropin releasing factor [CRF]: the “total CREB staining” value in assay [14] is on record as “had no effect on total CREB staining; also recorded: showed no change in total CREB staining”. In addition, the “binding affinity of CRF for CRFR1” value in assay [1] is 5 to 10 nM. Also, in [15] (CRF acting in NAc), the “effect on incentive salience of a sucrose reward” value is recorded as “enhances the incentive salience of a sucrose reward”. Besides, the “effect on rewarding effects of drugs of abuse” value in [15] is reported as “potentiate the rewarding effects of drugs of abuse”. Further, the cAMP concentration result in assay [10] (CRF 40 nM, time course of pCREB) is recorded as “failed to induce any measurable increase in cAMP concentration”. Moreover, in [10] (CRF 4 µM, 15 min, MβCD 10 mM), the “cAMP formation in the presence of MβCD” value is reported as “increased cAMP concentrations; also recorded: significant increase in cAMP formation” and the “cAMP formation in the presence of MβCD relative to isoproterenol” value is given as “not to the levels seen with isoproterenol”. Moreover, in [10] (CRF, various concentrations up to and including 400 nM, 15 min), the cAMP accumulation result is listed as “failed to increase cAMP accumulation; also recorded: failed to induce a significant accumulation of cAMP”. In assay [8] (40 nM CRF, time course), the “time constant τ of CRF-induced CREB phosphorylation” value is listed as ~3.5 min. Further, the CREB phosphorylation entry in [8] (CRF 40 nM, 15 min, vs vehicle (NS), p<0.0001, ~25 cells per group) is reported as “significantly increased CREB phosphorylation; also recorded: exhibited increased CREB phosphorylation”. In addition, in assay [8] (CRF 40 nM, 15 min, cumulative histogram), the “share of striatal neurons with shift in pCREB fluorescence intensity” value is on record as “approximately 80%”. Further, in [8] (CRF 40 nM, 1 hr), the “effect of extended exposure on CREB phosphorylation” value is “apparent desensitization”. Further, the “CREB phosphorylation, NAc enriched culture” value in assay [8] (NAc "enriched" cultures, data not shown) was “similarly robust increases in CREB phosphorylation”. The same compound yielded an EC50 in assay [8] (cultured striatal neurons from 1- to 2-day old rat pups, 8-10 d.i.v., nuclear pCREB (Ser133) immunofluorescence, 15 min, nonlinear curve fit) of 0.3 nM. The “CREB phosphorylation, dorsal striatum enriched culture” value in assay [8] (dorsal striatum "enriched" cultures, data not shown) was “similarly robust increases in CREB phosphorylation”. Further, the “CREB phosphorylation in mCherry-transfected neurons” value in assay [8] (neurons transfected with mCherry alone) is recorded as “robust CRF-induced CREB phosphorylation”. Further, the CREB activation entry in [16] is “activate CREB”.
With pertussis toxin [PTX], the “effect on CRF-induced CREB phosphorylation” value in assay [3] (PTX overnight (18 hr) pretreatment, 0.5 µng/µL, 500 ng/mL) is “did not alter CRF-mediated CREB phosphorylation; also recorded: did not affect CRF-induced pCREB”.

For orientation: Ki means a measure of affinity in units of concentration, obtained from inhibition or displacement. Broadly, the EC50 is the concentration giving half of the maximal effect. By Kd is commonly meant the concentration at which binding is half-saturated.

(Values after article PMC3063246, “Corticotropin Releasing Factor-Induced CREB Activation in Striatal Neurons Occurs via a Novel Gβγ Signaling Pathway” (PLoS ONE, 2011).)
